Measurements from patent publication US20170334899A1, “AMINO-SUBSTITUTED ISOTHIAZOLES” (Bayer Pharma Aktiengesellschaft, priority 2014, published 2017).

The compounds below were run against T1, human kinase Mps-1 (Homo sapiens, UniProt P33981) (assay: Mps-1 kinase assay (TR-FRET)). Settings: Mps-1 TR-FRET kinase assay; avg; read-out: Mps1 avg (IC50 [mol/l]).
T1 construct: N-terminally GST-tagged human full length recombinant Mps-1 kinase; GST (N); purchased Invitrogen, Karslruhe, Germany PV4071
T1 sequence (P33981 1-857): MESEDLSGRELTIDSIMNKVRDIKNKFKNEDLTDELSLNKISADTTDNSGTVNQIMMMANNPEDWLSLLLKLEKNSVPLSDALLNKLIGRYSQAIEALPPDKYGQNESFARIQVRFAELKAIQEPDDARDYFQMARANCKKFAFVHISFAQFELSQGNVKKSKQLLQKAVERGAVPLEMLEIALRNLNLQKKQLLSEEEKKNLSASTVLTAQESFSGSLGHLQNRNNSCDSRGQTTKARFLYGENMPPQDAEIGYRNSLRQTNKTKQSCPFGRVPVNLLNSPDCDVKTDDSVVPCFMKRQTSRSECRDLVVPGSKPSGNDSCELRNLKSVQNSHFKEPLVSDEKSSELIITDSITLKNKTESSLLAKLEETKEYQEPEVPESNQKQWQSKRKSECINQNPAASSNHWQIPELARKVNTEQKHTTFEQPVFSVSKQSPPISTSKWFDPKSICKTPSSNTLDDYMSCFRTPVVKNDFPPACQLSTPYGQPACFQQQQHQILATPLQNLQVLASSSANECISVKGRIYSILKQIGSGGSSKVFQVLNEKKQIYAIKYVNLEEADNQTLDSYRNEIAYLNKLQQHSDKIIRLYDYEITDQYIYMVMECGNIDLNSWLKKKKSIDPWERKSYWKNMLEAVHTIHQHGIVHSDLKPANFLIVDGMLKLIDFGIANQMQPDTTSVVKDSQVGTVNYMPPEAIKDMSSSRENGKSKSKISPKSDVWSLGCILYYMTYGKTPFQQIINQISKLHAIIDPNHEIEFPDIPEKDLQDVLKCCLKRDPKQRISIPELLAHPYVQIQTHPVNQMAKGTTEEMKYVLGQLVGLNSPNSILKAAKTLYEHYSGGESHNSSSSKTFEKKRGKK
Type: biochemical
Method: The human kinase Mps-1 phosphorylates a biotinylated substrate peptide. Detection of the phosphorylated product is achieved by time-resolved fluorescence resonance energy transfer (TR-FRET) from Europium-labelled anti-phospho-Serine/Threonine antibody as donor to streptavidin labelled with cross-linked allophycocyanin (SA-XLent) as acceptor. Compounds are tested for their inhibition of the kinase activity.
N-terminally GST-tagged human full length recombinant Mps-1 kinase (purchased from Invitrogen, Karslruhe, Germany, cat. no PV4071) was used. As substrate for the kinase reaction a biotinylated peptide of the amino-acid sequence biotin-Ahx-PWDPDDADITEILG (C-terminus in amide form, purchased from Biosyntan GmbH, Berlin) was used.
For the assay 50 nl of a 100-fold concentrated solution of the test compound in DMSO was pipetted into a black low volume 384we11 microtiter plate (Greiner Bio-One, Frickenhausen, Germany), 2 μl of a solution of Mps-1 in assay buffer [0.1 mM sodium-ortho-vanadate, 10 mM MgCl2,2 mM DTT, 25 mM Hepes pH 7.7, 0.05% BSA (w/v), 0.001% Pluronic F-127] were added and the mixture was incubated for 15 min at 22° C. to allow pre-binding of the test compounds to Mps-1 before the start of the kinase reaction. Then the kinase reaction was started by the addition of 3 μl of a solution of 16.7 μM adenosine-tri-phosphate (ATP, 16.7 μM=>final conc. in the 5 μl assay volume is 10 μM) and peptide substrate (1.67 μM=>final conc. in the 5 μl assay volume is 1 μM) in assay buffer and the resulting mixture was incubated for a reaction time of 60 min at 22° C. The concentration of Mps-1 in the assay was adjusted to the activity of the enzyme lot and was chosen appropriate to have the assay in the linear range, typical enzyme concentrations were in the range of about 0.5 nM (final conc. in the 5 μl assay volume). The reaction was stopped by the addition of 5 μl of a solution of TR-FRET detection reagents (100 mM Hepes pH 7.4, 0.1% BSA, 40 mM EDTA, 140 nM Streptavidin-XLent [#61GSTXLB, Fa. Cis Biointernational, Marcoule, France], 1.5 nM anti-phospho(Ser/Thr)-Europium-antibody [#AD0180, PerkinElmer LAS, Rodgau-Jugesheinn, Germany]. Instead of the 1.5 nM anti-phospho(Ser/Thr)-Europium-antibody a mixture of 2 nM unlabeled anti-phospho ser/thr-pro antibody MPM-2 [Millipore cat. #05-368] and 1 nM LANCE EU-W1024 labeled anti-mouse IgG antibody [Perkin-Elmer, product no. AD0077] can be used).
The resulting mixture was incubated 1 h at 22° C. to allow the binding of the phosphorylated peptide to the anti-phospho(Ser/Thr)-Europium-antibody. Subsequently the amount of phosphorylated substrate was evaluated by measurement of the resonance energy transfer from the Europium-labelled anti-phospho(Ser/Thr) antibody to the Streptavidin-XLent. Therefore, the fluorescence emissions at 620 nm and 665 nm after excitation at 350 nm was measured in a Viewlux TR-FRET reader (PerkinElmer LAS, Rodgau-Jugesheinn, Germany). The “blank-corrected normalized ratio” (a Viewlux specific readout, similar to the traditional ratio of the emissions at 665 nm and at 622 nm, in which blank and Eu-donor crosstalk are subtracted from the 665 nm signal before the ratio is calculated) was taken as the measure for the amount of phosphorylated substrate. The data were normalised (enzyme reaction without inhibitor=0% inhibition, all other assay components but no enzyme=100% inhibition).

SMILES | IC50 [µM]
Cc1nsc(Nc2cnc(C(F)(F)F)cn2)c1C(=O)Nc1ccc(OCC2CCN(CC(F)(F)F)C2)nc1 (stereo not drawn) [Example 123, 3-Methyl-N-(6-{[1-(2,2,2-trifluoroethyl)pyrrolidin-3-yl]methoxy}pyridin-3-yl)-5-{[5-(trifluoromethyl)pyrazin-2-yl]amino}-1,2-thiazole-4-carboxamide] | ≥ 20
Cc1nsc(Nc2cnc(C(F)(F)F)cn2)c1C(=O)Nc1ccc(OCC2CCN(CCC(F)(F)F)C2)nc1 (stereo not drawn) [Example 124, 3-methyl-5-{[5-(trifluoromethyl)pyrazin-2-yl]amino}-N-(6-{[1-(3,3,3-trifluoropropyl)pyrrolidin-3-yl]methoxy}pyridin-3-yl)-1,2-thiazole-4-carboxamide] | ≥ 20
Cc1nsc(Nc2cnc(C(F)(F)F)cn2)c1C(=O)Nc1ccc(OC[C@@H]2CCN(CC(F)(F)F)C2)nc1 [Example 128, 3-Methyl-N-(6-{[(3R)-1-(2,2,2-trifluoroethyl)pyrrolidin-3-yl]methoxy}pyridin-3-yl)-5-{[5-(trifluoromethyl)pyrazin-2-yl]amino}-1,2-thiazole-4-carboxamide] | > 20
Cc1nsc(Nc2cnc(C(F)(F)F)cn2)c1C(=O)Nc1ccc(OC[C@@H]2CCN(CCC(F)(F)F)C2)nc1 [Example 129, 3-Methyl-5-{[5-(trifluoromethyl)pyrazin-2-yl]amino}-N-(6-{[(3R)-1-(3,3,3-trifluoropropyl)pyrrolidin-3-yl]methoxy}pyridin-3-yl)-1,2-thiazole-4-carboxamide] | > 20
Cc1nsc(Nc2cnc(C(F)(F)F)cn2)c1C(=O)Nc1ccc(O[C@@H]2CCN(CC(F)F)C[C@@H]2F)nc1 [Example 137, N-(6-{[(3S,4R)-1-(2,2-difluoroethyl)-3-fluoropiperidin-4-yl]oxy}pyridin-3-yl)-3-methyl-5-{[5-(trifluoromethyl)pyrazin-2-yl]amino}-1,2-thiazole-4-carboxamide] | > 20
Cc1nsc(Nc2cnc(C(F)(F)F)cn2)c1C(=O)Nc1ccc(O[C@@H]2CCN(CC(F)(F)F)C[C@@H]2F)nc1 [Example 138, N-(6-{[(3S,4R)-3-fluoro-1-(2,2,2-trifluoroethyl)piperidin-4-yl]oxy}pyridin-3-yl)-3-methyl-5-{[5-(trifluoromethyl)pyrazin-2-yl]amino}-1,2-thiazole-4-carboxamide] | > 20
Cc1nsc(Nc2cnc(C(F)(F)F)cn2)c1C(=O)Nc1ccc(O[C@@H]2CCN(CCC(F)(F)F)C[C@@H]2F)nc1 [Example 139, N-(6-{[(3S,4R)-3-fluoro-1-(3,3,3-trifluoropropyl)piperidin-4-yl]oxy}pyridin-3-yl)-3-methyl-5-{[5-(trifluoromethyl)pyrazin-2-yl]amino}-1,2-thiazole-4-carboxamide] | > 20
CCCN1CC[C@@H](Oc2ccc(NC(=O)c3c(C)nsc3Nc3cnc(C(F)(F)F)cn3)cn2)[C@@H](F)C1 [Example 140, N-(6-{[(3S,4R)-3-fluoro-1-propylpiperidin-4-yl]oxy}pyridin-3-yl)-3-methyl-5-{[5-(trifluoromethyl)pyrazin-2-yl]amino}-1,2-thiazole-4-carboxamide] | > 20
Cc1nsc(Nc2cnc(C(F)(F)F)cn2)c1C(=O)Nc1ccc(O[C@H]2CCN(CC(F)F)C[C@H]2F)nc1 [Example 144, N-(6-{[(3R,4S)-1-(2,2-difluoroethyl)-3-fluoropiperidin-4-yl]oxy}pyridin-3-yl)-3-methyl-5-{[5-(trifluoromethyl)pyrazin-2-yl]amino}-1,2-thiazole-4-carboxamide] | > 20
Cc1nsc(Nc2cnc(C(F)(F)F)cn2)c1C(=O)Nc1ccc(O[C@H]2CCN(CC(F)(F)F)C[C@H]2F)nc1 [Example 145, N-(6-{[(3R,4S)-3-fluoro-1-(2,2,2-trifluoroethyl)piperidin-4-yl]oxy}pyridin-3-yl)-3-methyl-5-{[5-(trifluoromethyl)pyrazin-2-yl]amino}-1,2-thiazole-4-carboxamide] | > 20
Cc1nsc(Nc2cnc(C(F)(F)F)cn2)c1C(=O)Nc1ccc(O[C@H]2CCN(CCC(F)(F)F)C[C@H]2F)nc1 [Example 146, N-(6-{[(3R,4S)-3-fluoro-1-(3,3,3-trifluoropropyl)piperidin-4-yl]oxy}pyridin-3-yl)-3-methyl-5-{[5-(trifluoromethyl)pyrazin-2-yl]amino}-1,2-thiazole-4-carboxamide] | > 20
CCCN1CC[C@H](Oc2ccc(NC(=O)c3c(C)nsc3Nc3cnc(C(F)(F)F)cn3)cn2)[C@H](F)C1 [Example 147, N-(6-{[(3R,4S)-3-fluoro-1-propylpiperidin-4-yl]oxy}pyridin-3-yl)-3-methyl-5-{[5-(trifluoromethyl)pyrazin-2-yl]amino}-1,2-thiazole-4-carboxamide] | > 20
Cc1nsc(Nc2cnc3cc(F)ccc3n2)c1C(=O)Nc1ccc(S(N)(=O)=O)cc1 [Example 149, 5-[(6-fluoroquinoxalin-2-yl)amino]-3-methyl-N-(4-sulfamoylphenyl)-1,2-thiazole-4-carboxamide] | > 20
Cc1nsc(Nc2ccc(C#N)cn2)c1C(=O)Nc1cccc(S(C)(=O)=O)c1 [Example 150, 5-[(5-cyanopyridin-2-yl)amino]-3-methyl-N-[3-(methylsulfonyl)phenyl]-1,2-thiazole-4-carboxamide] | > 20
Cc1nsc(Nc2cnc(C(F)(F)F)cn2)c1C(=O)Nc1ccc(F)c(C(N)=O)c1 [Example 151, N-(3-carbamoyl-4-fluorophenyl)-3-methyl-5-{[5-(trifluoromethyl)pyrazin-2-yl]amino}-1,2-thiazole-4-carboxamide] | > 20
CC(=O)Nc1cc(NC(=O)c2c(C)nsc2Nc2ccc(C#N)cn2)ccc1F [Example 152, N-(3-acetamido-4-fluorophenyl)-5-[(5-cyanopyridin-2-yl)amino]-3-methyl-1,2-thiazole-4-carboxamide] | > 20
Cc1nsc(Nc2cnc(C(F)(F)F)cn2)c1C(=O)Nc1ccc(C(=O)NCCN2CCCC(F)(F)C2)cc1 [Example 153, N-(4-{[2-(3,3-difluoropiperidin-1-yl)ethyl]carbamoyl}phenyl)-3-methyl-5-{[5-(trifluoromethyl)pyrazin-2-yl]amino}-1,2-thiazole-4-carboxamide] | > 20
Cc1nsc(Nc2cnc(C(F)(F)F)cn2)c1C(=O)Nc1ccc(C(=O)N2CCN(CC(F)F)CC2)cc1 [Example 154, N-(4-{[4-(2,2-difluoroethyl)piperazin-1-yl]carbonyl}phenyl)-3-methyl-5-{[5-(trifluoromethyl)pyrazin-2-yl]amino}-1,2-thiazole-4-carboxamide] | > 20
